# Tests used:
# [1] = test system: patients with type 2 diabetes mellitus; settings: patients with type 2 diabetes mellitus at high risk for cardiovascular events; Zinman et al. 2015; cited from earlier work
# [2] = test system: SGLT2 versus SGLT1; settings: Grempler et al. 2012; cited from earlier work
# [3] = biological target: T1, human diamine oxidase (Homo sapiens, UniProt P19801); test: inhibition of human diamine oxidase; settings: qualitative statement
# T1 sequence (P19801 20-751): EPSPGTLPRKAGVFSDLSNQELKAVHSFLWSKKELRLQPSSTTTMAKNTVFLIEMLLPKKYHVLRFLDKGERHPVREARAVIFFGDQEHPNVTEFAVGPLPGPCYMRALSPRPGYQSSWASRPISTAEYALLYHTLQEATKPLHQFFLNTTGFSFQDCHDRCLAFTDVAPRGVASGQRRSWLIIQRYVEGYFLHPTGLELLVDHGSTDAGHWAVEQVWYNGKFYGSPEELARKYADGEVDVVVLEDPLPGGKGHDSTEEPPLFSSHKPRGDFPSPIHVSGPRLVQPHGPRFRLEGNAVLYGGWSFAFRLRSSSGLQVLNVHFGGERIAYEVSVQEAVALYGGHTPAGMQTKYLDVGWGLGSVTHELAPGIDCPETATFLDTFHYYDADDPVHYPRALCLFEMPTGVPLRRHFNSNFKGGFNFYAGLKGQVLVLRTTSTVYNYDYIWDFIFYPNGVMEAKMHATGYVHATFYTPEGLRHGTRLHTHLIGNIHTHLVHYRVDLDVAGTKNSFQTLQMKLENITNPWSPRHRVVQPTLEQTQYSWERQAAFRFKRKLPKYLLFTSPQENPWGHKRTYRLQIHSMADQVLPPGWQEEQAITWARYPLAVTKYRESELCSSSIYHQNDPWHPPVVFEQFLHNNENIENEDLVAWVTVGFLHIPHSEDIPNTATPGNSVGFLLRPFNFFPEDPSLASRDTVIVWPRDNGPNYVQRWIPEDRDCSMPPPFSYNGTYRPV
# [4] = test system: HbA1c; settings: metformin on its own, in the diabetic; cited from earlier work
smiles,measurement,setting,value
OC[C@H]1O[C@@H](c2ccc(Cl)c(Cc3ccc(O[C@H]4CCOC4)cc3)c2)[C@H](O)[C@@H](O)[C@@H]1O [empagliflozin],rates of the primary composite cardiovascular outcome and of death from any cause,[1],significantly lower rates
same,selectivity SGLT2 versus SGLT1,[2],high selectivity
"CC(C)(C)NC(=O)c1ccc(OC/C(=C/F)CN)cc1 [Compound 23, (E)-4-(2-(Aminomethyl)-3-fluoroallyloxy)-N-tert-butylbenzamide]",inhibitory activity against human diamine oxidase,[3],low inhibitory activity
CN(C)C(=N)N=C(N)N [metformin],average improvement in the HbA1c value,[4],1.0-1.5%

# Source: patent US20180104198A1, “Pharmaceutical Composition, Methods for Treating and Uses Thereof” (Boehringer Ingelheim International GmbH, priority 2016, published 2018)
